Measured values from patent US10604509B2, “Nrf2 regulators” (GlaxoSmithKline Intellectual Property Development Limited, priority 2015, dated 2020).
Counter-ions that a name gives are not always drawn.

The compounds below were run on NQO1 specific enzyme activity in BEAS-2B cells (assay: BEAS-2B NQO1 MTT assay). Conditions: BEAS-2B cells, 48 hours with compound, MTT readout; read-out: EC50 of NQO1 specific activity induction.
Assay type: cell-based
How it was run: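 NQO1 specific activity, an NRF2 activation marker, read kinetically as absorbance change at 570 nm for 30 min after MTT cocktail addition to crude lysates of BEAS-2B cells exposed 48 h to compound. Three-parameter fit of Delta OD/min against log concentration gives EC50; lysate portion used for Cell Titer Glo.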

Structure (SMILES)	EC50 [nM]
Cc1ccc(C(CC(=O)O)c2ccc3c(nnn3C)c2C)cc1CN1Cc2ncccc2OC(C)(C)C1 (stereo in doubt) [Example 170, (S)-3-(1,4-Dimethyl-1H-benzo[d][1,2,3]triazol-5-yl)-3-(3-((2,2-dimethyl-2,3-dihydropyrido[2,3-f][1,4]oxazepin-4(5H)-yl)methyl)-4-methylphenyl)propanoic acid, 0.5 Formlc acid salt]	10 to 100
Cc1ccc(C(CC(=O)O)c2ccc3c(nnn3C)c2C)cc1CN1Cc2cc(C#N)ccc2OC(C)(C)C1 (single isomer, unassigned) [Example 172]	10 to 100
CC[C@@H]1CN(Cc2cc(C(CCc3cn(CC)nn3)C(C)C(=O)O)ccc2C)Cc2ccccc2O1 (single isomer, unassigned; isomer 3) [Example 120]	1 to 10
CC[C@@H]1CN(Cc2cc([C@H](CC(=O)O)c3ccc4c(nnn4CC)c3Cl)ccc2C)Cc2ccccc2O1 [Example 66, (S)-3-(4-Chloro-1-ethyl-1H-benzo[d][1,2,3]triazol-5-yl)-3-(3-(((R)-2-ethyl-2,3-dihydrobenzo[f][1,4]oxazepin-4(5H)-yl)methyl)-4-methylphenyl)propanoate, Sodium Salt]	10 to 100

Same assay, conditions: Homo sapiens, BEAS-2B, 48 h, BEAS-2B cells, 48 hours with compound, MTT readout; read-out: EC50 of NQO1 specific activity induction

Structure (SMILES)	EC50 [nM]
CC[C@@H]1CN(Cc2cc(C(CCc3cn(CC)nn3)C(C)(C)C(=O)O)ccc2C)Cc2ncccc2O1 (stereo partly drawn) [Example 216, 5-(1-Ethyl-1H-1,2,3-triazol-4-yl)-3-(3-(((R)-2-ethyl-2,3-dihydropyrido[2,3-f][1,4]oxazepin-4(5H)-yl)methyl)-4-methylphenyl)-2,2-dimethylpentanoic Acid]	1 to 10
CC[C@@H]1CN(Cc2cc([C@@H](c3ccc4c(nnn4C)c3C)[C@H](C)C(=O)O)ccc2C)Cc2ccccc2O1 [Example 41, (2S,3S)-3-(1,4-Dimethyl-1H-benzo[d][1,2,3]triazol-5-yl)-3-(3-(((R)-2-ethyl-2,3-dihydrobenzo[f][1,4]oxazepin-4(5H)-yl)methyl)-4-methylphenyl)-2-methylpropanoic Acid]	100 to 1000
Cc1ccc(C(c2ccc3c(nnn3C)c2C)C(C)(C)C(=O)O)cc1Cc1cnnn1CC1CCCCCC1 (single isomer, unassigned) [Example 241]	< 1
Cc1ccc(C(CC(=O)O)c2ccc3c(nnn3C)c2C)cc1CN1CCCC(n2cccn2)C1 (stereo not drawn) [Example 9, Ammonium 3-(3-((3-(1H-pyrazol-1-yl)piperidin-1-yl)methyl)-4-methylphenyl)-3-(1,4-dimethyl-1H-benzo[d][1,2,3]triazol-5-yl)propanoate]	1000 to 10000
Cc1ccc([C@H](c2ccc3c(nnn3C)c2C)[C@H](C)C(=O)O)cc1CN1Cc2cnccc2OC(C)(C)C1 [Example 198, (2S,3R)-3-(1,4-Dimethyl-1H-benzo[d][1,2,3]triazol-5-yl)-3-(3-((2,2-dimethyl-2,3-dihydropyrido[3,4-f][1,4]oxazepin-4(5H)-yl)methyl)-4-methylphenyl)-2-methylpropanoic acid, 0.1 formic acid salt]	10 to 100
CCC1Cc2c(F)cccc2CN(Cc2cc(C(c3ccc4c(nnn4C)c3C)C(C)(C)C(=O)O)ccc2C)C1 (stereo not drawn) [Example 36, 3-(1,4-Dimethyl-1H-benzo[d][1,2,3]triazol-5-yl)-3-(3-((4-ethyl-6-fluoro-4,5-dihydro-1H-benzo[c]azepin-2(3H)-yl)methyl)-4-methylphenyl)-2,2-dimethylpropanoic acid]	1 to 10
CC[C@@H]1CN(Cc2cc(C(Cc3nnn[nH]3)c3ccc4c(nnn4C)c3C)ccc2C)Cc2ccccc2O1 (stereo partly drawn) [Example 112, (2R)-4-(5-(1-(1,4-dimethyl-1H-benzo[d][1,2,3]triazol-5-yl)-2-(1H-tetrazol-5-yl)ethyl)-2-methylbenzyl)-2-ethyl-2,3,4,5-tetrahydrobenzo[f][1,4]oxazepine, Formic Acid Salt]	100 to 1000
Cc1ccc(C(CC(=O)O)c2ccc3c(nnn3C)c2C)cc1CN1Cc2ccc(C#N)cc2OC(C)(C)C1 (single isomer, unassigned) [Example 173]	10 to 100
COc1ccc2c(c1)CN(Cc1cc([C@@H](CC(=O)O)c3ccc4c(nnn4C)c3C)ccc1C)CC(C)(C)O2 [Example 166, (R)-3-(1,4-Dimethyl-1H-benzo[d][1,2,3]triazol-5-yl)-3-(3-((7-methoxy-2,2-dimethyl-2,3-dihydrobenzo[f][1,4]oxazepin-4(5H)-yl)methyl)-4-methylphenyl)propanoic acid]	10 to 100
CC[C@@H]1CN(Cc2cc(C(CC(=O)O)c3ccc4c(nnn4C)c3C)ccc2C)Cc2cccc(F)c2O1 (stereo partly drawn) [Example 80, 3-(1,4-Diemthyl-1H-benzo[d][1,2,3]triazol-5-yl)-3-(3-(((R)-2-ethyl-9-fluoro-2,3-dihydrobenzo[f][1,4]oxazepin-4(5H)-yl)methyl)-4-methylphenyl)propanoic acid, formic acid salt]	10 to 100
CCn1nnc2c(C)c([C@H](c3ccc(C)c(Cn4ccnc4CN4CCCCC4)c3)[C@@H](C)C(=O)O)ccc21 [Example 210, (2R,3S)-3-(1-Ethyl-4-methyl-1H-benzo[d][1,2,3]triazol-5-yl)-2-methyl-3-(4-methyl-3-((2-(piperidin-1-ylmethyl)-1H-imidazol-1-yl)methyl)phenyl)propanoic Acid]	10 to 100
Cc1ccc(C(CC(=O)O)c2ccc3c(nnn3C)c2C)cc1Cn1ccnc1CN1CCCCCC1 (stereo not drawn) [Example 147, 3-(3-((2-(Azepan-1-ylmethyl)-1H-imidazol-1-yl)methyl)-4-methylphenyl)-3-(1,4-dimethyl-1H-benzo[d][1,2,3]triazol-5-yl)propanoic acid, formic acid salt]	1000 to 10000
CC[C@@H]1CN(Cc2cc(C(CCc3cn(CC)nn3)C(C)C(=O)O)ccc2C)Cc2ncccc2O1 (stereo partly drawn) [Example 224, 5-(1-Ethyl-1H-1,2,3-triazol-4-yl)-3-(3-(((R)-2-ethyl-2,3-dihydropyrido[2,3-f][1,4]oxazepin-4(5H)-yl)methyl)-4-methylphenyl)-2-methylpentanoic Acid, 0.20 Formic Acid Salt]	100 to 1000
CCC1CN(Cc2cc(C(CC(=O)O)c3cc(OC)c4c(nnn4C)c3C)ccc2C)Cc2ccccc2O1 (stereo not drawn) [Example 70, 3-(3-((2-Ethyl-2,3-dihydrobenzo[f][1,4]oxazepin-4(5H)-yl)methyl)-4-methylphenyl)-3-(7-methoxy-1,4-dimethyl-1H-benzo[d][1,2,3]triazol-5-yl)propanoic Acid, Formic Acid Salt]	10 to 100
Cc1ccc(C(c2ccc3c(nnn3C)c2C)C(C)(C)C(=O)O)cc1Cn1ccnc1CN1CCC(C)CC1 (stereo not drawn) [Example 139, 3-(1,4-Dimethyl-1H-benzo[d][1,2,3]triazol-5-yl)-2,2-dimethyl-3-(4-methyl-3-((2-((4-methylpiperidin-1-yl)methyl)-1H-imidazol-1-yl)methyl)phenyl) propanoic acid]	1000 to 10000
CCC1CCN(Cc2nccn2Cc2cc([C@H](c3ccc4c(nnn4C)c3C)C(C)C(=O)O)ccc2C)CC1 (stereo partly drawn) [Example 152, (3R)-3-(1,4-Dimethyl-1H-benzo[d][1,2,3]triazol-5-yl)-3-(3-((2-((4-ethylpiperidin-1-yl)methyl)-1H-imidazol-1-yl)methyl)-4-methylphenyl)-2-methylpropanoic Acid, Trifluoroacetic Acid Salt]	100 to 1000
CC[C@@H]1CN(Cc2cc([C@H](CC(=O)O)c3ccc4c(nnn4C)c3C)ccc2C)Cc2cnccc2O1 [Example 50, (S)-3-(1,4-Dimethyl-1H-benzo[d][1,2,3]triazol-5-yl)-3-(3-(((R)-2-ethyl-2,3-dihydropyrido[3,4-f][1,4]oxazepin-4(5H)-yl)methyl)-4-methylphenyl)propanoic acid, formic acid salt]	10 to 100
Cc1c(C(CC(=O)O)c2ccc(Cl)c(CN3CCCC(O)C3)c2)ccc2c1nnn2C (stereo not drawn) [Example 161, 3-(4-chloro-3-((3-hydroxypiperidin-1-yl)methyl)phenyl)-3-(1,4-dimethyl-1H-benzo[d][1,2,3]triazol-5-yl)propanoic Acid]	1000 to 10000
COc1ccc(C2COCCN2Cc2cc(C(CC(=O)O)c3ccc4c(nnn4C)c3C)ccc2C)cc1 (stereo not drawn) [Example 21, 3-(1,4-dimethyl-1H-benzo[d][1,2,3]triazol-5-yl)-3-(3-((3-(4-methoxyphenyl)morpholino)methyl)-4-methylphenyl)propanoic acid, formic acid salt]	1000 to 10000
CCC1(C)CN(Cc2cc([C@@H](c3ccc4c(nnn4C)c3C)C(C)(C)C(=O)O)ccc2C)Cc2ccccc2O1 (stereo partly drawn) [Example 240, (3S)-3-(1,4-Dimethyl-1H-benzo[d][1,2,3]triazol-5-yl)-3-(3-((2-ethyl-2-methyl-2,3-dihydrobenzo[f][1,4]oxazepin-4(5H)-yl)methyl)-4-methylphenyl)-2,2-dimethylpropanoic Acid]	1 to 10
CC[C@@H]1CN(Cc2cc([C@@H](c3ccc4c(nnn4C)c3C)C(C)(C)C(=O)NS(C)(=O)=O)ccc2C)Cc2cnccc2O1 [Example 205, (S)-3-(1,4-Dimethyl-1H-benzo[d][1,2,3]triazol-5-yl)-3-(3-(((R)-2-ethyl-2,3-dihydropyrido[3,4-f][1,4]oxazepin-4(5H)-yl)methyl)-4-methylphenyl)-2,2-dimethyl-N-(methylsulfonyl)propanamide, Trifluoroacetic Acid Salt]	100 to 1000
CC[C@@H]1CN(Cc2cc(C(CC(=O)O)c3ccc4c(nnn4C)c3C)ccc2C)Cc2ccccc2O1 (stereo partly drawn) [Example 73, 3-(1,4-Diemthyl-1H-benzo[d][1,2,3]triazol-5-yl)-3-(3-(((R)-2-ethyl-2,3-dihydrobenzo[f][1,4]oxazepin-4(5H)-yl)methyl)-4-methylphenyl)propanonic acid, formic acid salt]	100 to 1000
CC[C@@H]1CN(Cc2cc(C(CCc3cn(CC)nn3)C(C)(C)C(=O)O)ccc2C)Cc2cccnc2O1 (stereo partly drawn) [Example 217, 5-(1-Ethyl-1H-1,2,3-triazol-4-yl)-3-(3-(((R)-2-ethyl-2,3-dihydropyrido[3,2-f][1,4]oxazepin-4(5H)-yl)methyl)-4-methylphenyl)-2,2-dimethylpentanoic Acid]	10 to 100
